Test results from patent US11242406B2, “Methods for the treatment of a cancer or fibrotic disorder associated with MENA or MENA(INV) by administering a map kinase inhibitor” (METASTAT, INC., priority 2016, dated 2022).

Key:
[1] = tested on: MENA kinase-dependent phosphorylation of MENA^INV at Ser144; experiment: Quantitative immunoblot of pSer125/pSer144 MENA/MENA^INV in TNF-alpha stimulated MVD7-MENA^INV cells; assay type: cell-based, mouse; settings: FIG. 2
Method: Anti-phospho-MENA antibodies specific for the Ser125/Ser144 phosphorylation site in MENA/MENA^INV were produced in animals injected with peptide containing mouse MENA residues 117-133 phosphorylated at Ser125 and conjugated to KLH (Covance Research Products, Denver, Pa.). Purification of pSer125MENA antibody was performed according to the protocol of Archuleta, et al. (Archuleta, Stutzke, Nixon, & Browning, Optimized protocol to make phospho-specific antibodies that work. Methods Mol. Biol. 717:69-88, 2011). Peptides used for purification (phosphorylated peptide: Ac-CKKGPTLPRQN(pS)QLPAQVQN (SEQ ID NO: 32) and dephosphorylated: […] (SEQ ID NO:32)) were prepared by Covance Research Products (BioLegend, San Diego, Calif.) and ThermoScientific, Grand Island, N.Y., respectively. Peptides were coupled to SulfoLink Coupling Resin Column (ThermoScientific) according to manufacturer's instructions. Sera were sequentially passed over column containing dephosphorylated peptide, and then over the column containing phosphorylated peptide. Antibodies bound to second column were eluted using IgG Elution buffer (ThermoScientific).
Phosphorylation of MENA and or MENA isoforms is inhibited by MENA kinase inhibitors from the Ras-Raf-MEK-MAPK/ERK and PI3K-AKT/mTOR pathways. […] Phosphorylation was measured by quantitative immunoblot assays using MENA antibodies specific for the phosphorylation of MENA/MENA^INV at Ser125/Ser144 Cells were stimulated and the MENA kinase was activated through treatment with 10 ng/ml TNF-alpha. […]

[2] = tested on: MDA-MB-231-MENA^INV cells; experiment: Matrigel invasion chamber assay (cell invasion and chemotaxis towards EGF); assay type: cell-based, human; settings: 18 hours
Method: Addition of MENA kinase inhibitors to cells grown in fully supplemented medium reduce the capability of the breast cancer cell line to migrate in the wound healing assay (panels (c)-(h)). Panel (a) represents the wound size at the start of treatment. Cells that were cultured overnight in fully supplemented medium without drug (panel (b)) were able to close 50% of the wound. […] The ability of the various MENA kinase inhibitors described above to inhibit […] tumor cell invasion was tested using the BioCoatTM Matrigel® invasion chamber assay (Corning, Tewksbury, Mass.). […] Inserts were transferred to wells containing basal media (negative control) and the chemoattractant EGF with or without each of the MENA kinase inhibitors. After 18 hours cells that invaded the lower cell surface of the membrane were fixed, stained and evaluated by quantitative immunostaining using imageJ software.

[3] = tested on: MDA-MB-231-MENA^INV cells; experiment: Wound healing cell migration assay; assay type: cell-based, human; settings: 18 hours, fully supplemented medium, without drug 50%
Method: MENA kinase inhibitors block MENA-dependent cell migration in a wound-healing assay. The ability of the various MENA kinase inhibitors described above to block MENA-dependent cell migration of MDA-MB-231-MENA^INV cells was assayed using the CySelect™ wound healing assay kit (Cell Biolabs, Inc., San Diego, Calif.). Following the manufacturer's protocol, cells were cultured in fibronectin coated wells until a monolayer formed around the wound insert. The insert was then removed and cells were cultured in the presence of inhibitor at the indicated concentrations in FIG. 9 in fully supplemented medium. After 18 hours the cells were fixed, stained, and evaluated for their capacity to close the wound generated by the insert by fluorescence microscopy.

[4] = tested on: MDA-MB-231-MENA^INV cells; experiment: Boyden Chamber cell migration and chemotaxis assay; assay type: cell-based, human; settings: 18 hours
Method: MENA kinase inhibitors reverse MENA-dependent cell migration and chemotaxis in the Boyden Chamber Assay. […] The fibronectin coated upper chamber were then transferred to wells containing basal media (negative controls) and wells containing basal media, EGF, and MENA kinase inhibitors at the concentrations indicated in FIG. 11. All treatment conditions except the basal negative control used EGF as the chemoattractant. After 18 hours, cells that migrated through the pores toward the chemotattractant were evaluated by quantitative immunostaining using imageJ software as described above. Data were analyzed using anova (n=2) and reported relative to the EGF stimulated cells absent any inhibitor positive control (0) as mean with error of the mean in FIG. 11.

MVD7-MENA^INV cells = experiment: Fibronectin fibrillogenesis assay; assay type: cell-based, mouse; settings: for MENA-dependent fibronectin fibrillogenesis phenotype compared to the MENA-null control: FIG. 8
Method: MENA kinase inhibitors reversed MENA-dependent fibrillogenesis. The ability of the various MENA kinase inhibitors described above to reverse MENA-dependent fibrillogenesis was evaluated in fibronectin fibrillogenesis assays using the […] cell line. Cells were pretreated with MENA kinase inhibitor for 1 hour at the concentrations indicated in FIG. 8 and cultured in medium containing fibronectin-depleted serum supplemented with labeled fibronectin. After 4 hours, fibronectin fibril formation was evaluated by quantitative immunostaining using imageJ software to measure abundance and distribution of fibrillar fibronectin (anova, n=3). The results are plotted relative to control MVD7-GFP cells in FIG. 8.

MAPKAPK2/MK2 = MAPKAPK2/MK2 (Homo sapiens, UniProt P49137); settings: cited from earlier work
Chain of MAPKAPK2/MK2 (P49137 whole entry): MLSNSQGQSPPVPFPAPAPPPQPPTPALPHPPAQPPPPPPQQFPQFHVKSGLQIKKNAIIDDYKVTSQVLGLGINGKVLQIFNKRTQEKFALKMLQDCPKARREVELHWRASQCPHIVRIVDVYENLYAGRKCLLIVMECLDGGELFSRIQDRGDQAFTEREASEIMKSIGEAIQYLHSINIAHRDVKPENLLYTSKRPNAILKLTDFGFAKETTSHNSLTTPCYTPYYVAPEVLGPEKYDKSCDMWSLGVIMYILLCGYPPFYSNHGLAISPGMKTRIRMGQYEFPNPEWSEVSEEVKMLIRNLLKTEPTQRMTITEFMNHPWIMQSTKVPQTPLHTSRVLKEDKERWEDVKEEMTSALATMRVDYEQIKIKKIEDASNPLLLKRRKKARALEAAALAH

[5] = tested on: HSP27 Ser82 phosphorylation site; experiment: Mass spec phosphoproteomic analysis of MAPKAPK2/MK2-dependent phosphorylation; assay type: cell-based; settings: doxorubicin treated cells
Description: (§1) The present invention is also based in part on the discovery that the peptide sequence proximal to the serine 125 (Ser125) phosphorylation site of MENA and the equivalent serine 144 (Ser144) phosphorylation site of MENA^INV are potent substrates of the MAPKAPK2/MK2 kinase. Replacement of Ser125 in MENA and or Ser144 in MENA^INV with a non-phosphorylable amino acid changes the peptide substrates to effective peptide inhibitors of the MAPKAPK2/MK2 kinase. […] In doxorubicin treated cells the MENA Ser125 phosphorylation site becomes more heavily phosphorylated (˜8× increase) than the HSP27 Ser82 phosphorylation site (˜2.5× increase). The Ser125/Ser144 serine residue was replaced with a non-phosphorylatable glycine residue to convert the MENA/MENA^INV substrate peptides into effective MENA kinase inhibitors.

[6] = tested on: MENA Ser125 phosphorylation site; experiment: as above; assay type: cell-based; settings: doxorubicin treated cells
Description: as §1

Compound: CC(C)(C)Cn1c(N)nc2ccc(-c3[nH]c(C(C)(C)C)nc3-c3ccc(F)cc3)nc21.CS(=O)(=O)O [LY2228820, 5-[2-tert-butyl-4-(4-fluorophenyl)-1H-imidazol-5-yl]-3-(2,2-dimethylpropyl)imidazo[4,5-b]pyridin-2-amine; methanesulfonic acid]
- level of phosphorylated MENA^INV ([1]; inhibitor at 1 uM): significantly reduce
- relative number of cells that invade through Matrigel insert membranes towards EGF ([2]; 10 uM): significantly reduce
- wound closure ([3]; 10 uM): 20%
- MENA-dependent migration/chemotaxis phenotype (cells migrated through fibronectin coated membrane towards EGF) ([4]; 10 uM): significantly reverse

Compound: O=C(NOC[C@H](O)CO)c1ccc(F)c(F)c1Nc1ccc(I)cc1F [PD0325901, N-[(2R)-2,3-dihydroxypropoxy]-3,4-difluoro-2-[(2-fluoro-4-iodophenyl)amino]-benzamide]
- level of phosphorylated MENA^INV ([1]; inhibitor at 1 uM): significantly reduce
- relative number of cells that invade through Matrigel insert membranes towards EGF ([2]; 1 uM): significantly reduce
- wound closure ([3]; 1 uM): 15%
- MENA-dependent fibronectin fibrillogenesis phenotype compared to the MENA-null control (MVD7-MENA^INV cells): significantly reduced
- MENA-dependent migration/chemotaxis phenotype (cells migrated through fibronectin coated membrane towards EGF) ([4]; 1 uM): significantly reverse

Compound: KKKALHRQLGVAA (MAPKAPK2/MK2 inhibitor derived from HSP25)
- relative number of cells that invade through Matrigel insert membranes towards EGF ([2]; 100 uM): significantly reduce
- relative number of cells that invade through Matrigel insert membranes towards EGF ([2]; 300 uM): significantly reduce
- inhibition of MAPKAPK2/MK2 (MAPKAPK2/MK2): potent inhibitor
- wound closure ([3]; 300 uM): 15%
- MENA-dependent fibronectin fibrillogenesis phenotype compared to the MENA-null control (MVD7-MENA^INV cells): significantly reduced
- MENA-dependent fibronectin fibrillogenesis phenotype (MVD7-MENA^INV cells; increasing concentrations, 100 and 300 uM, 4 hours): Dose-dependent reductions
- MENA-dependent migration/chemotaxis phenotype (cells migrated through fibronectin coated membrane towards EGF) ([4]; 100 uM): significantly reverse
- MENA-dependent migration/chemotaxis phenotype (cells migrated through fibronectin coated membrane towards EGF) ([4]; 300 uM): significantly reverse

Compound: Cc1ccc(-c2ccc3c(ccc4sc5c(c43)NC[C@@H](C)NC5=O)n2)cn1.O [PF-3644022, (10R)-9,10,11,12-tetrahydro-10-methyl-3-(6-methyl-3-pyridinyl)-8H-[1,4]diazepino[5′,6′:4,5]thieno[3,2-f]quinolin-8-one hydrate]
- level of phosphorylated MENA^INV ([1]; inhibitor at 10 uM): significantly reduce
- relative number of cells that invade through Matrigel insert membranes towards EGF ([2]; 10 uM): significantly reduce
- wound closure ([3]; 10 uM): 10%
- MENA-dependent migration/chemotaxis phenotype (cells migrated through fibronectin coated membrane towards EGF) ([4]; 10 uM): significantly reverse

Compound: O=c1cc(N2CCOCC2)oc2c(-c3ccccc3)cccc12 [LY294002, 2-morpholin-4-yl-8-phenylchromen-4-one]
- relative number of cells that invade through Matrigel insert membranes towards EGF ([2]; 10 uM): significantly reduce
- wound closure ([3]; 10 uM): 15%
- MENA-dependent fibronectin fibrillogenesis phenotype compared to the MENA-null control (MVD7-MENA^INV cells): significantly reduced
- MENA-dependent migration/chemotaxis phenotype (cells migrated through fibronectin coated membrane towards EGF) ([4]; 10 uM): significantly reverse

Compound: COc1cccc2c1C(=O)c1c(O)c3c(c(O)c1C2=O)C[C@@](O)(C(=O)CO)C[C@@H]3O[C@H]1C[C@H](N)[C@H](O)[C@H](C)O1 [doxorubicin]
- increase in phosphorylation of HSP27 Ser82 site [5]: ~2.5 ×
- increase in phosphorylation of MENA Ser125 site [6]: ~8 ×
